Experimental data published in patent US4409233A, “Highly concentrated preparations of dopa compounds” (Sankyo Company, Limited, priority 1978, dated 1983).
≈ marks a conversion by molar mass, not a printed value.

Legend:
[1] = Solubility of dopa compounds in water; type: physicochemical; conditions: 50 mg of dopa
[2] = cited from earlier work

Row | volume of water necessary to dissolve the minimal dose of dopa [1] [mL] | Compound | solubility in water [2] [µg/mL] | solubility in water (in words) [2]
1 | 20 | NC(Cc1ccc(O)c(O)c1)C(=O)O (stereo not drawn) [dopa, β-(3,4-dihydroxyphenyl)-α-alanine] | 2500 (≈ 12.7 mM) | poor solubility in water
2 |  | C[C@](N)(Cc1ccc(O)c(O)c1)C(=O)O [methyldopa, L-3-(3,4-dihydroxyphenyl)-2-methylalanine] |  | poor solubility in water
